Experimental data published in PubChem BioAssay AID485351 (Sanford-Burnham Center for Chemical Genomics, 2010).
Where “and” joins values, the source holds several entries; their conditions need not be identical. Identical values can stand only once. Calls of active or inactive are those of the source. How the calls were made is not given here.

Target: Ubiquitin-conjugating enzyme E2 N (Homo sapiens) (UniProt P61088)
Assay: Ubc13/Uev1a ubiquitination inhibitors, SAR follow-up, biochemical, TR-FRET, set 2 (AID 485351)
Conditions: in vitro Ubc13-Uev1a ubiquitination

Chain of Ubiquitin-conjugating enzyme E2 N (Homo sapiens) (P61088 whole entry, looked up): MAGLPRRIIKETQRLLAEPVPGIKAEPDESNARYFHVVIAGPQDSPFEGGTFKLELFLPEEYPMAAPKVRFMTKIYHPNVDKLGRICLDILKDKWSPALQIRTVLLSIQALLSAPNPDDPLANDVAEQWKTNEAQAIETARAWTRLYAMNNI

Row | SMILES | IC50
1 | c1ccc(CC(Nc2ccccc2)c2ccco2)cc1 (centres undefined) | > 100 µM (inactive)
2 | COC(=O)C1=C(C(=O)OC)C2([C@@H](Cc3ccccc3)Nc3ccc(C)cc3)C=CC1O2 (some centres undefined) | > 100 µM (inactive)
3 | CCCCn1c(NC(=O)c2cccc(Cl)c2)c(C#N)c2nc3ccccc3nc21 | 1.34 µM
4 | C=CC[C@@H](Nc1ccccc1)C12C=CC(O1)C(C(=O)OC)=C2C(=O)OC (some centres undefined) | > 100 µM (inactive)
5 | COC(=O)C1=C(C(=O)OC)C2([C@@H](C)Nc3ccc(OC)cc3)C=CC1O2 (some centres undefined) | > 100 µM (inactive)
6 | COc1ccc2c(c1)C(NC(C)=O)C(=O)N2CCc1ccccc1 (centres undefined) | > 100 µM (inactive)
7 | CCCCn1c(NC(=O)c2ccc(F)cc2)c(S(=O)(=O)c2ccc(C)cc2)c2nc3ccccc3nc21 | 1.32 µM
8 | COC(=O)C1=C(C(=O)OC)C2([C@@H](C)Nc3ccc(Cl)cc3)C=CC1O2 (some centres undefined) | > 100 µM (inactive)
9 | CCCCn1c(NC(=O)c2ccc(F)cc2)c(C#N)c2nc3ccccc3nc21 | 1.16 µM
10 | C=CC[C@@H](Nc1ccc(OC)cc1)C12C=CC(O1)C(C(=O)OC)=C2C(=O)OC (some centres undefined) | 78.9 µM
11 | COc1ccc2c(c1)C(NC(C)=O)C(=O)N2CC1COc2ccccc2O1 (centres undefined) | > 100 µM (inactive)
12 | COC(=O)C1=C(C(=O)OC)C2(C(Cc3ccc(F)cc3)Nc3ccccc3)C=CC1O2 (centres undefined) | > 100 µM (inactive)
13 | C=CC[C@H](Nc1ccccc1)C12C=CC(O1)C(C(=O)OC)=C2C(=O)OC (some centres undefined) | > 100 µM (inactive)
14 | C=CC[C@@H](Nc1ccc(C)cc1)C12C=CC(O1)C(C(=O)OC)=C2C(=O)OC (some centres undefined) | > 100 µM (inactive)
15 | CCCC1=NN(c2ccccc2)C(=O)/C1=C/c1ccc(OCc2ccc(C(=O)OC)cc2)cc1 | > 100 µM (inactive)
16 | COC(=O)C1=C(C(=O)OC)C2([C@@H](C)Nc3ccccc3)C=CC1O2 (some centres undefined) | > 100 µM (inactive)
17 | COc1cc(/C=C2\C(=O)N(c3ccccc3)N=C2C)ccc1OCc1ccccc1 | > 100 µM (inactive)
18 | C=CCn1c(NS(=O)(=O)c2ccccc2)c(S(=O)(=O)c2ccc(C)cc2)c2nc3ccccc3nc21 | 0.769 µM
19 | CCCCn1c(NC(=O)c2ccccc2)c(C#N)c2nc3ccccc3nc21 | 1.2 µM and 1 µM
20 | C=CC[C@H](Nc1ccc(C)cc1)C12C=CC(O1)C(C(=O)OC)=C2C(=O)OC (some centres undefined) | > 100 µM (inactive)
21 | C=CCn1c(NC(=O)c2ccccc2Cl)c(C#N)c2nc3ccccc3nc21 | 1.11 µM
22 | Nc1c(C(=O)NCc2ccco2)c2nc3ccccc3nc2n1Cc1ccccc1 | 0.815 µM
23 | CCCCNC(=O)c1c(NC(=O)c2ccccc2)n(Cc2ccccc2)c2nc3ccccc3nc12 | 18.8 µM
24 | CCCCn1c(NC(=O)c2ccccc2Cl)c(S(=O)(=O)c2ccccc2)c2nc3ccccc3nc21 | 1.68 µM
25 | COC(=O)C1=C(C(=O)OC)C2([C@H](C)Nc3ccccc3)C=CC1O2 (some centres undefined) | 80.2 µM
26 | COc1cc(/C=C2\C(=O)N(c3ccccc3)N=C2C)ccc1OC(=O)c1cccs1 | > 100 µM (inactive)
27 | CCCC1=NN(c2ccc(C(=O)O)cc2)C(=O)/C1=C/c1ccc(OCc2ccccc2)cc1 | > 100 µM (inactive)

Row | SMILES | IC50
28 | COc1cc(/C=C2\C(=O)N(c3ccccc3)N=C2C)ccc1O | > 100 µM (inactive)
29 | N#Cc1c(NC(=O)c2ccccc2Cl)n(C2CCCCC2)c2nc3ccccc3nc12 | 2.84 µM
30 | C=CC[C@H](Nc1ccc(Cl)cc1)C12C=CC(O1)C(C(=O)OC)=C2C(=O)OC (some centres undefined) | > 100 µM (inactive)
31 | COC(=O)C1=C(C(=O)OC)C2([C@H](Cc3ccccc3)Nc3ccccc3)C=CC1O2 (some centres undefined) | > 100 µM (inactive)
32 | COC(=O)C1=C(C(=O)OC)C2([C@H](Cc3ccccc3)Nc3ccc(OC)cc3)C=CC1O2 (some centres undefined) | > 100 µM (inactive)
33 | N#Cc1c(NC(=O)c2ccccc2Cl)n(Cc2ccccc2)c2nc3ccccc3nc12 | 2.78 µM
34 | COC(=O)C1=C(C(=O)OC)C2([C@H](Cc3ccc(C)cc3)Nc3ccccc3)C=CC1O2 (some centres undefined) | > 100 µM (inactive)
35 | COCCNC(=O)c1c(NC(=O)c2ccccc2)n(Cc2ccccc2)c2nc3ccccc3nc12 | 0.656 µM
36 | CC(=O)NC1C(=O)N(CCN2CCOCC2)c2ccc(C)cc21 (centres undefined) | > 100 µM (inactive)
37 | COC(=O)C1=C(C(=O)OC)C2([C@@H](Cc3ccc(C)cc3)Nc3ccccc3)C=CC1O2 (some centres undefined) | > 100 µM (inactive)
38 | CCCN1C(=O)C(NC(C)=O)c2cc(OC)ccc21 (centres undefined) | > 100 µM (inactive)
39 | CCCC1=NN(c2ccc(C(=O)O)cc2)C(=O)/C1=C/c1ccc(OCc2ccccc2)c(OC)c1 | > 100 µM (inactive)
40 | Cc1cc(C)c2c(c1)C(=O)C(=O)N2CCN1CCOCC1 | > 100 µM (inactive)
41 | CCCCn1c(NC(=O)c2ccc(OC)cc2)c(S(=O)(=O)c2ccc(C)cc2)c2nc3ccccc3nc21 | 0.752 µM
42 | COc1ccc(CN2C(=O)C(NC(C)=O)c3ccccc32)cc1 (centres undefined) | > 100 µM (inactive)
43 | CCCCn1c(NC(=O)c2ccccc2)c(S(=O)(=O)c2ccc(C)cc2)c2nc3ccccc3nc21 | 1.95 µM and 1.1 µM
44 | CCCCn1c(N)c(S(=O)(=O)c2ccc(C)cc2)c2nc3ccccc3nc21 | 2.08 µM and 0.875 µM
45 | COC(=O)C1=C(C(=O)OC)C2([C@@H](C)Nc3ccc(C)cc3)C=CC1O2 (some centres undefined) | > 100 µM (inactive)
46 | CCCCn1c(NC(=O)C2CCCCC2)c(C#N)c2nc3ccccc3nc21 | 0.499 µM
47 | C=C[C@@H](Nc1ccccc1)C12C=CC(O1)C(C(=O)OC)=C2C(=O)OC (some centres undefined) | > 100 µM (inactive)
48 | C=CC[C@H](Nc1ccc(OC)cc1)C12C=CC(O1)C(C(=O)OC)=C2C(=O)OC (some centres undefined) | > 100 µM (inactive)
49 | COC(=O)C1=C(C(=O)OC)C2([C@H](Cc3ccccc3)Nc3ccc(C)cc3)C=CC1O2 (some centres undefined) | > 100 µM (inactive)
50 | CCC(=O)Nc1c(S(=O)(=O)c2ccccc2)c2nc3ccccc3nc2n1Cc1ccccc1 | 0.755 µM
51 | COC(=O)C1=C(C(=O)OC)C2([C@H](C)Nc3ccc(Cl)cc3)C=CC1O2 (some centres undefined) | 53 µM
52 | CCC[C@@H](Nc1ccccc1)C12C=CC(O1)C(C(=O)OC)=C2C(=O)OC (some centres undefined) | > 100 µM (inactive)
53 | COC(=O)[C@@H]1C2CCC([C@@H](Cc3ccccc3)Nc3ccccc3)(O2)[C@@H]1C(=O)OC (some centres undefined) | > 100 µM (inactive)
54 | CCCCn1c(NC(=O)CC)c(S(=O)(=O)c2ccc(C)cc2)c2nc3ccccc3nc21 | 0.742 µM

Row | SMILES | IC50
55 | C=C[C@H](Nc1ccccc1)C12C=CC(O1)C(C(=O)OC)=C2C(=O)OC (some centres undefined) | 51.5 µM
56 | COC(=O)C1=C(C(=O)OC)C2([C@@H](Cc3ccccc3)Nc3ccc(OC)cc3)C=CC1O2 (some centres undefined) | > 100 µM (inactive)
57 | COc1ccc2c(c1)C(NC(C)=O)C(=O)N2CCOc1ccccc1 (centres undefined) | > 100 µM (inactive)
58 | CCCCn1c(NC(=O)c2ccccc2Cl)c(C#N)c2nc3ccccc3nc21 | 0.697 µM and 1.01 µM
59 | CCCCn1c(NC(=O)c2ccco2)c(C#N)c2nc3ccccc3nc21 | 0.777 µM
60 | COC(=O)C1=C(C(=O)OC)C2([C@@H](Cc3ccccc3)Nc3ccccc3)C=CC1O2 (some centres undefined) | > 100 µM (inactive)
61 | COC(=O)C1=C(C(=O)OC)C2([C@@H](Cc3ccc(OC)cc3)Nc3ccccc3)C=CC1O2 (some centres undefined) | > 100 µM (inactive)
62 | CCCCCn1c(NC(=O)c2ccco2)c(C(=O)OCC)c2nc3ccccc3nc21 | 0.501 µM
63 | CCCC1=NN(c2ccc(C(=O)O)cc2)C(=O)/C1=C/c1ccc(O)cc1 | > 100 µM (inactive)
64 | C=CC[C@H](N(Cc1ccccc1)/C(=C\C(=O)OC)C(=O)OC)C12C=CC(O1)C(C(=O)OC)=C2C(=O)OC (some centres undefined) | > 100 µM (inactive)
65 | CCCCn1c(NC(=O)c2ccco2)c(S(=O)(=O)c2ccc(C)cc2)c2nc3ccccc3nc21 | 0.809 µM
66 | C=CCC(Nc1ccccc1)C12C=CC(O1)C(C(=O)OC)=C2C(=O)OC (centres undefined) | > 100 µM (inactive)
67 | CCCCn1c(NC(=O)c2ccc(Cl)cc2)c(C#N)c2nc3ccccc3nc21 | 0.859 µM
68 | C=CC[C@@H](N(Cc1ccccc1)/C(=C\C(=O)OC)C(=O)OC)C12C=CC(O1)C(C(=O)OC)=C2C(=O)OC (some centres undefined) | > 100 µM (inactive)
69 | C=CC[C@@H](Nc1ccc(Cl)cc1)C12C=CC(O1)C(C(=O)OC)=C2C(=O)OC (some centres undefined) | > 100 µM (inactive)
70 | COCCn1c(NC(=O)c2ccc(Cl)cc2)c(S(=O)(=O)c2ccc(C)cc2)c2nc3ccccc3nc21 | 1.74 µM
71 | COC(=O)C=C(NC(CO)(CO)CO)C(=O)OC | 87.2 µM
72 | CCCCn1c(NS(=O)(=O)c2ccccc2)c(S(=O)(=O)c2ccc(C)cc2)c2nc3ccccc3nc21 | 0.741 µM
73 | CCC[C@H](Nc1ccccc1)C12C=CC(O1)C(C(=O)OC)=C2C(=O)OC (some centres undefined) | > 100 µM (inactive)
74 | COc1ccc2c(c1)C(=O)C(=O)N2CCN1CCOCC1 | > 100 µM (inactive)
75 | CCCC1=NN(c2ccccc2)C(=O)/C1=C\c1ccc(O)cc1 | > 100 µM (inactive)
76 | COC(=O)C1=C(C(=O)OC)C2([C@@H](Cc3ccccc3)Nc3ccc(Cl)cc3)C=CC1O2 (some centres undefined) | > 100 µM (inactive)
77 | CCCCn1c(NC(C)=O)c(C#N)c2nc3ccccc3nc21 | 0.669 µM
78 | COC(=O)C1=C(C(=O)OC)C2([C@H](Cc3ccccc3)Nc3ccc(Cl)cc3)C=CC1O2 (some centres undefined) | > 100 µM (inactive)
79 | COC(=O)C1=C(C(=O)O)C2C=CC1([C@@H](Cc1ccccc1)Nc1ccccc1)O2 (some centres undefined) | > 100 µM (inactive)
